We go through 8 molecules from paper PMC5296225 (European journal of medicinal chemistry, 2016).

For orientation: Ki means a dissociation constant, usually derived from enzyme kinetics or from competition with a known ligand.

Assay [1] has as its system Saporin L3 (SAP). It is filed as biochemical, Saponaria officinalus.
In assay [2] the target is T1, SAP (saporin L3) (Saponaria officinalis, UniProt Q2QEH4). Nature of the assay: Ki* quoted in Table 1 from ref 19. It is filed as biochemical. Conditions: read-out: Inhibition constant Ki* (nM), value taken from Schramm et al. [19]; cited from earlier work.
T1 sequence (Q2QEH4 22-280 limits assumed): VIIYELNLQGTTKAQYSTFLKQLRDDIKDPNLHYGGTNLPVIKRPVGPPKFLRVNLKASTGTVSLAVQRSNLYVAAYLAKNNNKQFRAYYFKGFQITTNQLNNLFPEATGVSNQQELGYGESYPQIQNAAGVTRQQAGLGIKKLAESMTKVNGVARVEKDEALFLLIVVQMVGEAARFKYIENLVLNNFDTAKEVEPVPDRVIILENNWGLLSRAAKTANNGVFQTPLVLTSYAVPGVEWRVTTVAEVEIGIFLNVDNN
Assay [3] deals with T1, SAP (saporin L3). Put plainly: Competitive inhibition of saporin L3 with stem-loop RNA A10. It is filed as biochemical.
In assay [4] the test system is SAP and SAP-A14C. Nature of the assay: Inhibition of SAP hydrolysis of yeast tRNA and rabbit rRNA. The assay is classed as biochemical, Saponaria officinalus. To be noted: rabbit 80S ribosome 100 nM or yeast tRNA 1.0 mg/mL; 10 min preincubation.

Regarding PDpGpDIApPD [Compound 39], the “inhibition of SAP (in words)” value in assay [1] was “weak inhibitors”.
As for “serinol analogue of PDpDIApGpPD (Ser = serinol; PD = propanediol) [PDpSerpGpPD]”, the Ki in assay [2] was 43.2 ± 1.1 nM.
In turn, PDpApGpPD [reference compound] returned a Ki in assay [1] (RNA A10 substrate, slow-onset dissociation constant) of 16.1 µM.
“catalytically inactive substrate analogue PDpApGpPD (adenosine in place of DIA; PD = propanediol)”: the Ki in assay [3] (read-out: Inhibition constant Ki*) worked out at 16 µM.
Consider PDpDIApGpPD [Compound 2], for which the “inhibition of hydrolysis of yeast tRNA and rabbit rRNA by SAP and SAP-A14C” value in assay [4] is reported as “inhibits”.
As for PDpHomoSerpGpPD [Compound 52], the “inhibition of SAP (in words)” value in assay [1] is “good inhibitors”.
On the same count and under the same terms, then GpGpDIApPD [Compound 41], with “weak inhibitors”.
In assay [3], `CO[C@@H]1[C@H](O)[C@@H](COP(=O)(O)O[C@H]2CN(Cc3c[nH]c4c(N)ncnc34)C[C@@H]2COP(=O)(O)O[C@H]2[C@@H](OC)[C@H](n3cnc4c(=O)[nH]c(N)nc43)O[C@@H]2CO)O[C@H]1n1cnc2c(=O)[nH]c(N)nc21` [compound 32, GpDIApG (2'-O-methyl guanosines)] gave a Ki of 0.033 ± 0.0017 µM.
